Legend:
[1] = biological target: T1, flTau aggregates (longest isoform of human Tau, 2N4R; 441 amino acids) (Homo sapiens, UniProt P10636); experiment: Full-length Tau (flTau) disaggregation assay by Thioflavin T (ThT); format: biochemical; settings: 2 μM flTau aggregates, 160 to 0.04 μM compound, 30 minutes RT, ThT fluorescence
T1 construct: 35 μM of recombinant full-length (fl)Tau in PBS were aggregated for 24 hours; made in house; host or cells: bacteria
Protocol: Biological Assay Description Full-Length Tau (flTau) Disaggregation Assay by Thioflavin T (ThT)
The longest isoform of human Tau (2N4R; 441 amino acids) was expressed in bacteria and purified. For the Tau disaggregation assay by ThT, 35 μM of recombinant full-length (fl)Tau in PBS were aggregated for 24 hours at 37° C. in presence of 50 μM of heparin (Sigma-Aldrich) and 10 mM of DTT (Sigma-Aldrich) under shaking at 750 RPM. Compounds were dissolved in anhydrous dimethyl sulfoxide (DMSO, Sigma-Aldrich) to reach a concentration of 10 mM.
(§1) flTau aggregates and serial dilutions of compounds were mixed together in PBS (volume 50 μL) to a final concentration of 2 μM of flTau aggregates and from 160 to 0.04 μM of compounds. The mixture was incubated for 30 minutes at room temperature (RT), then 40 μL of this mixture were transferred into a black 384-well plate assay (Perkin-Elmer) and mixed with 10 μL of 100 μM ThT in 250 mM glycine (both from Sigma-Aldrich) in PBS. Fluorescence (relative fluorescence units; RFU) was measured in monoplicate or duplicate on a Tecan reader (excitation: 440 nm; emission: 485 nm). Percentage of flTau disaggregation was then calculated and the halfmaximal effective concentration (EC50) was determined using GraphPad Prism version 5 (GraphPad Software) assuming a one-binding site fitting model.

[2] = biological target: T2, K18 aggregates (Tau K18 fragment, amino acids 244 to 372 of human Tau441) (Homo sapiens, UniProt P10636); experiment: Tau K18 disaggregation assay by ThT; format: biochemical; settings: 2 μM K18 aggregates, 160 to 0.04 μM compound, 30 minutes RT, ThT fluorescence; read-out: TauK18 disaggregation EC50
T2 construct: encompassing amino acids 244 to 372 of the longest isoform (2N4R) of human Tau441; host or cells: bacteria
T2 sequence (P10636 561-689): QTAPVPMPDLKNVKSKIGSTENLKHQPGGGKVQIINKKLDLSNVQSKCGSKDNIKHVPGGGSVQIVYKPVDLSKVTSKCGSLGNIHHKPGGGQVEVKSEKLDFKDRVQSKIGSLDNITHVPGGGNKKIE
Protocol: Tau K18 Disaggregation Assay by ThT
as §1, with “The Tau K18 fragment, encompassing amino acids 244 to 372 of the longest isoform (2N4R) of human Tau441, was expressed in bacteria and purified or bought from SignalChem. For the K18 disaggregation assay by ThT, 35 μM of recombinant K18 in PBS were aggregated for 24 hours at 37° C. in presence of 50 μM of heparin (Sigma-Aldrich) and 10 mM of DTT (Sigma-Aldrich) under shaking at 750 RPM. Compounds were dissolved in anhydrous dimethyl sulfoxide (DMSO, Sigma-Aldrich) to reach a concentration of 10 mM. K18 aggregates” for “flTau aggregates”, “of K18” for “of flTau”, “and half maximal” for “and the halfmaximal”

[3] = system: human neuroblastoma cell line overexpressing the full-length form of human Tau carrying the P301L mutation; experiment: Reduction of intracellular Tau aggregation (AlphaLISA); format: cell-based; settings: compound at 5 μM, 24 h; aggregated Tau normalized to total Tau, relative to DMSO-treated cells
Protocol: Reduction of Intracellular Tau Aggregation
A human neuroblastoma cell line overexpressing the full-length form of human Tau carrying the P301L mutation was cultured in complete medium [DMEM-F12 4.5 g/L Glutamax (Invitrogen), 15% FBS (Biochrom), 1% Peni/Strep (Invitrogen) supplemented with 2.5 μg/ml of G418 (Sigma-Aldrich) selection antibiotic]. The day before the experiment 5×10^5 cells/well were plated in a 6 well plate in 3 mL of complete medium. The next day, cells were incubated with DMSO or a compound of the present invention at a 5 μM for additional 24 h at 37° C. After incubation, cells were trypsinized, resupsended in 100 μl of homogenization buffer [25 mM Tris-HCl pH 7.4, 150 mM NaCl, 1 mM EDTA, 1 mM EGTA containing phosphatase inhibitors (30 mM NaF, 0.2 mM Na3VO4, 1 nM Okadaic acid, 1 mM PMSF, 5 mM Na4P2O7) and protease inhibitor cocktail (Complete™, Roche)], and then physically lysed with three rapid cycles of freezing and thawing. Samples were then directly tested in the AlphaLISA assay.
Phosphorylated, aggregated, and total Tau were quantified by AlphaLisa using the following antibody pairs: • HT7-Acceptor beads+biotin (BT)-Tau13-Donor beads: Total Tau • HT7-Acceptor beads+biotin (BT)-HT7-Donor beads: Aggregated human Tau
The Tau13 (Abcam) was biotinylated using EZ-Link® NHS-PEO Solid Phase biotinylation kit (Thermo Scientific), while the HT7-biotin was from a commercial source (Thermo Scientific).
For each antibody pairs the concentration of acceptor beads and biotinylated antibodies was optimized. All samples were first tested in a dilution series in PBS in order to identify the linear range and optimal dilution for each sample and assay. For the final protocol, the following reagents were added in a 384-well white OptiPlate (Perkin Elmer): • 5 μL of test diluted sample • 20 μL of the mixture biotin-mAb acceptor beads at the following final concentrations: • HT7-BT at 1.25 nM in combination with HT7-Acc beads at 10 μg/ml • Tau13-BT at 5 nM in combination with HT7-Acc beads at 2.5 μg/ml
After incubation of this mixture at room temperature for 1 h, 25 μL of Streptavidin Donor beads (Perkin Elmer) at 25 μg/mL were added in the dark. Plates were analyzed after 30 min incubation using the EnSpire Alpha instrument and EnSpire Workstation version 3.00.
Data for aggregated Tau were normalized to total Tau and then expressed as percentage of the DMSO-treated cells.

T1 sequence (P10636 1-441 isoform P10636-8): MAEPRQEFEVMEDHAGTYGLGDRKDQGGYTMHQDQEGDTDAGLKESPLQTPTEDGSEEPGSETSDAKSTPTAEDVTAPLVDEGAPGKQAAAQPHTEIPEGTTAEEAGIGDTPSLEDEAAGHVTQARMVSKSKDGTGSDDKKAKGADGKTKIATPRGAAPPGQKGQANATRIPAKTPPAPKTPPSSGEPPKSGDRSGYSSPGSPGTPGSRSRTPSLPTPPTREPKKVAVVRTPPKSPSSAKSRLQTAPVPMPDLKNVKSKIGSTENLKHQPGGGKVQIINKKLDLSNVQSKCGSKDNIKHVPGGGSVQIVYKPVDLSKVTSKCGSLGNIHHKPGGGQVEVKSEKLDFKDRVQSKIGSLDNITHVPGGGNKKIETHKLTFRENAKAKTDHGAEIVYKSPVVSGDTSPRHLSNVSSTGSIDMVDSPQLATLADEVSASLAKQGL

SMILES	EC50 [1] [µM]	EC50 [2] [µM]	% Reduction of intracellular Tau aggregation [3]
CN(C)C1CCc2[nH]c3nc(Nc4ccc5oc(N6CCOCC6)nc5c4)ccc3c2C1 (stereo not drawn) [Example 30]	< 10	–	–
CN(C)[C@@H]1CCc2c(c3ccc(Nc4ccc5oc(N6CCOCC6)nc5c4)nc3n2C)C1 [Example 18]	25 to 50	10 to 25	–
CN(C)C1CCc2[nH]c3nc(Nc4ccc5nc(N6CCOCC6)sc5c4)ccc3c2C1 (stereo not drawn) [Example 29]	< 10	–	–
CN(C)[C@H]1CCc2c(c3ccc(Nc4ccc5nc(N6CCOCC6)sc5c4)nc3n2C)C1 [Example 13]	< 10	< 10	–
CN(C)C1CCc2oc3nc(Nc4ccc5nc(N6CCOCC6)oc5c4)ccc3c2C1 (stereo not drawn) [Example 28]	–	10 to 25	–
CN(C)[C@@H]1CCc2oc3nc(Nc4ccc5oc(N6CCOCC6)nc5c4)ccc3c2C1 [Example 36]	–	10 to 25	–
CN(C)[C@H]1CCc2oc3nc(Nc4ccc5sc(N6CCOCC6)nc5c4)ccc3c2C1 [Example 34]	–	< 10	–
CN(C)C1CCc2c(c3ccc(Nc4ccc5sc(N6CCC(F)CC6)nc5c4)nc3n2C)C1 (stereo not drawn) [Example 3]	< 10	< 10	++ (++ %50 < x < 25)
CN(C)[C@@H]1CCc2c(c3ccc(Nc4ccc5nc(N6CCOCC6)oc5c4)nc3n2C)C1 [Example 17]	25 to 50	–	–
CN(C)[C@@H]1CCc2oc3nc(Nc4ccc5nc(N6CCOCC6)sc5c4)ccc3c2C1 [Example 22]	–	25 to 50	–
CN(C)[C@H]1CCc2oc3nc(Nc4ccc5nc(N6CCOCC6)sc5c4)ccc3c2C1 [Example 21]	–	10 to 25	–
CN(C)C1CCc2oc3nc(Nc4ccc5sc(N6CCOCC6)nc5c4)ccc3c2C1 (stereo not drawn) [Example 5]	–	< 10	–
CC(C)N1CCc2oc3nc(Nc4ccc5nc(N6CCOCC6)sc5c4)ccc3c2C1 [Example 7]	–	< 10	–
CN(C)C1CCc2c(c3ccc(Nc4ccc5nc(N6CCOCC6)sc5c4)nc3n2C)C1 (stereo not drawn) [Example 10]	< 10	< 10	–
CN(C)C1CCc2c(c3ccc(Nc4ccc5sc(N6CCC[C@H](F)C6)nc5c4)nc3n2C)C1 (stereo partly drawn) [Example 15]	< 10	< 10	–
CC(C)N1CCc2c(c3ccc(Nc4ccc5sc(N6CCC(F)CC6)nc5c4)nc3n2C)C1 [Example 6]	< 10	< 10	–
CN(C)[C@@H]1CCc2oc3nc(Nc4ccc5sc(N6CCOCC6)nc5c4)ccc3c2C1 [Example 33]	–	< 10	–
CN(C)C1CCc2c(c3ccc(Nc4ccc5sc(N6CCC[C@@H](F)C6)nc5c4)nc3n2C)C1 (stereo partly drawn) [Example 16]	< 10	< 10	–
CN(C)[C@H]1CCc2oc3nc(Nc4ccc5oc(N6CCOCC6)nc5c4)ccc3c2C1 [Example 35]	–	< 10	–
CN(C)[C@@H]1CCc2c(c3ccc(Nc4ccc5nc(N6CCC[C@@H](F)C6)oc5c4)nc3n2C)C1 [Example 19]	10 to 25	10 to 25	–
CN(C)C1CCc2c(c3ccc(Nc4ccc5nc(N6CCC(F)CC6)sc5c4)nc3n2C)C1 (stereo not drawn) [Example 14]	10 to 25	10 to 25	–
CC(C)N1CCc2oc3nc(Nc4ccc5sc(N6CCOCC6)nc5c4)ccc3c2C1 [Example 8]	–	25 to 50	–
CN(C)C1CCc2c(c3ccc(Nc4ccc5sc(N6CCOCC6)nc5c4)nc3n2C)C1 (stereo not drawn) [Example 9]	–	< 10	–
CN(C)C1CCc2oc3nc(Nc4ccc5oc(N6CCOCC6)nc5c4)ccc3c2C1 (stereo not drawn) [Example 31]	< 10	10 to 25	–
CN(C)[C@H]1CCc2c(c3ccc(Nc4ccc5sc(N6CCOCC6)nc5c4)nc3n2C)C1 [Example 11]	< 10	< 10	–
CN(C)C1CCc2oc3nc(Nc4ccc5nc(N6CCOCC6)sc5c4)ccc3c2C1 (stereo not drawn) [Example 20]	–	25 to 50	–
CN(C)C1CCc2[nH]c3nc(Nc4ccc5nc(N6CCOCC6)oc5c4)ccc3c2C1 (stereo not drawn) [Example 32]	10 to 25	–	–

From patent publication US12202840B2, “Compounds for the treatment or alleviation of disorders associated with Tau aggregates” (AC Immune SA, priority 2018, dated 2025)
